Reference: patent publication US20260364056A1, “METHODS OF TREATMENT OF NON-PANCREATIC GASTROINTESTINAL CANCERS” (IONCTURA bv, priority 2023, published 2026)

Key:
lung fibrosis = settings: compared with GLPG1690; cited from earlier work
breast cancer = settings: in vivo; cited from earlier work
HLF cells = assay: Cell viability assay (crystal violet); assay type: cell-based
Protocol: Human colorectal adenocarcinoma HT29 and Caco-2 cells, hepatocellular carcinoma HLE cells, cholangiocarcinoma RBE and KKU-M213 cells were purchased from the American […] Culture Collection (ATCC, Manassas, VA, USA). The hepatocellular carcinoma cell line HLF was purchased from JCRB Cell Bank (Japan). All cell lines were cultured in Dulbecco's Modified Eagle Medium (DMEM) supplemented with 10% foetal bovine serum (FBS), 1 mM pyruvate, 25 mM HEPES, 100 U/mL penicillin-streptomycin (all from Thermo Fisher Scientific, Waltham, MA, USA), and maintained in a humidified atmosphere at 37 °C containing 5% CO2. The medium was changed every three days. Oleoyl-LPA was purchased from Avanti Polar Lipids (Birmingham, AL).
Cells were seeded in 96-well plates at a density of 2000 cells/well in 10% FBS supplemented medium. After 24 h, medium was removed, the cells washed with PBS and cultured in the presence or absence of FBS and of different concentrations of Compound land LPA. After the time set for the experiment, the cells were fixed with a 4% PFA solution and stained with 0.02% crystal violet for 10 min. Subsequently the plates have been washed with water to remove excess dye. The cell-bound dye was redissolved in 1% SDS and the optical density was measured at λ=570 with a iMark™ Microplate Absorbance Reader (Bio-rad).
FIGS. 2A and 2B show the effect of Compound 1 on cell proliferation in the absence of FBS and in the presence of 10% FBS. […] Cells were grown in serum free culture medium or in presence of 10% FBS and incubated with increasing Compound 1 concentrations or with DMSO (control cells) for 24, 48 and 72 hours. After fixation, proliferation was assessed by crystal violet staining method. *P<0.05.
To evaluate the anti-proliferative/cytotoxic effects of Compound 1, six different cancer tumour cell lines were treated developed from cholangiocarcinoma (CCA), hepatocellular carcinoma (HCC) and colorectal cancer (CRC), with increasing concentration of the Compound 1 ranging from 10 μM up to 50 μM and at different times of incubation. […]

HLE cells [1] = assay: Wound healing assay; assay type: cell-based; settings: Homo sapiens, serum-free, read-out: inhibition of cell migration
Protocol: (§1) Cells were seeded in a 12-well plate in 10% FBS medium and grown to reach a 80-90% confluence. Then, a scratch was made on the cell monolayer by using a p200 pipette tip. The plate was washed with sterile PBS to remove the debris and on the outer bottom of the plate were created markings with a tip marker, used as reference points. Each cell line was incubated with medium without FBS and containing increasing concentrations of Compound 1 (1-3-9-12 μM). Images were acquired at 0, 24 and 48 h by using a confocal microscope Nikon Eclipse Ti2 in bright field microscope and analysed with image-J. Image-J software was used to measure the scratched area. Cell migratory ability of wound-healing was assessed using the following formula: [(wound area at 0 h)−(wound area at indicated time)]/(wound area at 0 h).
(§2) Images were taken at time 0, 24 h and 48 h and cell migration into the cell-free region (outlined) was quantified.
(§3) Tumor progression is characterized by an enhanced cell motility and invasiveness. To expand upon the knowledge of the effects of Compound 1 on HLE, KKU-m213 and HT-29 cells, their migratory activity was assessed when treated with Compound 1 by using both, a wound healing and a transwell migration assay. Cells were seeded in a 12-well plate and, when a confluent monolayer was reached, an artificial gap was generated between the cells using a pipette tip. […]

KKU-M213 cells [2] = assay: Wound healing assay; assay type: cell-based; settings: Homo sapiens, serum-free, respect to control, after 24 h and 48 h, p<0.05, read-out: reduction in wound closure
Protocol: as §1, §2, §3

[3] = tested on: xenografted tumours of KKUM-213 cells and human cancer-associated fibroblasts; assay: Tumour growth in vivo, mouse xenograft model of cholangiocarcinoma; settings: 10 mg/kg twice daily, oral gavage, from 5th day, vs vehicle, n=5, Mann-Whitney P<0.05
Protocol: To further explore the activity of Compound 1 on gastrointestinal cancer cells in vivo, the effectiveness in a mouse model of cholangiocarcinoma was investigated. Xenografted tumours were produced by co-injection of KKUM-213 cells and human cancer-associated fibroblasts (CAFs). Starting from the 5th day the mice were treated twice daily with Compound 1 (10 mg/kg) or vehicle (1% (w/v) methylcellulose in water) by oral gavage. The tumour volumes were monitored twice a week until the animals were sacrificed. […] Data are presented as the mean±SD (n=5 mice per group; Mann-Whitney test:*P<0.05).

HLE cells [4] = assay: Transwell migration assay; assay type: cell-based, human; settings: 12 μM, 24 h, serum-free medium in upper chamber
Protocol: (§4) Cell culture inserts with […] pores (Corning, inc.) were coated with 50 μl of a 10 mg/ml Collagen type 1 solution (Gibco). 1.5×10^4 cells were plated in the upper chamber in serum-free medium, in absence or presence of 12 μM Compound 1, while the bottom wells were filled with complete medium. The cells were allowed to migrate across the membrane for at least 16 h. After incubation, the cells were fixed with PFA 4% for 10′ and stained with 0.02% crystal violet for 10′. The excess dye was washed off with tap water and the non-migrated cells were scraped off from the upper surface of the membrane with a cotton swab. Cell migratory ability was assessed by counting the average number of cells at least 5 field at 10× magnification.
as §2
(§5) Tumor progression is characterized by an enhanced cell motility and invasiveness. To expand upon the knowledge of the effects of Compound 1 on HLE, KKU-m213 and HT-29 cells, their migratory activity was assessed when treated with Compound 1 by using both, a wound healing and a transwell migration assay. Cells were seeded in a 12-well plate and, when a confluent monolayer was reached, an artificial gap was generated between the cells using a pipette tip. The scratch closure of migrating cells was observed after […]. […] In HLE cells a 3 μM concentration of Compound 1 is already sufficient to cause a 40% inhibition of cell migration. […] (FIG. 3B).

KKU-M213 cells [5] = assay: Transwell migration assay; assay type: cell-based, human; settings: 12 μM, 24 h, serum-free medium in upper chamber
Protocol: as §4, §2, §5

HT-29 cells = assay: Transwell migration assay; assay type: cell-based, human; settings: 12 μM, 24 h, serum-free medium in upper chamber
Protocol: as §4, §2, §5

pancreatic cancer = settings: compared with gemcitabine; cited from earlier work
KKU-M213 cells [6] = assay: Crystal violet staining and morphology under inverted light microscope; assay type: cell-based, human; settings: 3, 9 and 12 μM, 72 h

SMILES: C[C@H](NC(=O)CCc1nc2cccnc2n1Cc1ccc(OC(F)(F)F)cc1)c1ccc(Cl)cc1 [Compound 1, N-[(S)-1-(4-chloro-phenyl)-ethyl]-3-[3-(4-trifluoromethoxy-benzyl)-3H-imidazo[4,5-b]pyridin-2-yl]-propionamide]
- reduction in fibrosis score (lung fibrosis): greater reduction in fibrosis score compared with GLPG1690
- dissemination of primary tumors (breast cancer): inhibit the dissemination of primary tumors
- effect on cell proliferation (HLF cells; 1 μM up to 12 μM, 10% FBS, 24, 48 and 72 h): generally the same as the control
- cytotoxic effect / inhibition of cell proliferation (HLF cells; 3 to 12 μM, absence of FBS, evident after 48 h, stronger after 72 h): significant (p<0.05) cytotoxic effect in a dose-dependent manner
- cytotoxic effect (HLF cells; 30 to 50 μM, medium with 10% FBS): significant (p<0.05) cytotoxic effect
- inhibition at 3 µM (HLE cells [1]): 40%
- inhibition at 9 µM (KKU-M213 cells [2]): ~50%
- tumour progression (tumour volume) [3]: significantly reduces tumour progression
- migratory capacity (migrated cells through the membrane) (HLE cells [4]): significantly inhibited migratory capacity
- migratory capacity (migrated cells through the membrane) (KKU-M213 cells [5]): significantly inhibited migratory capacity
- migratory capacity (migrated cells through the membrane) (HT-29 cells): significantly inhibited migratory capacity
- activity in pancreatic cancer model (pancreatic cancer): comparable activity with gemcitabine
- morphological changes (KKU-M213 cells [6]): cells exhibit morphological changes and characteristics of apoptosis such as cell shrinkage and cytoplasmic vacuolization
